In patent US7601702B2, “Dutpase Inhibitors” (Medivir AB, priority 2004, dated 2009):
Values after ≈ are worked out from the molar mass of the structure shown.

Legend:
Type in all cases: cell-based
T. b. brucei STIB 950 = experiment: Trypanosoma brucei whole cell assay, secondary screen STIB 950; conditions: STIB950
[1] = test system: Trypanosoma brucei gambiense STIB 930; experiment: Trypanosoma brucei whole cell assay, secondary screen STIB 930
Description: The bloodstream form trypomastigotes of strain b are maintained in MEM medium with Earle's salts supplemented with 25 mM HEPES, 1 g/l additional glucose, 1% MEM non-essential aminoacids (100×), 0.2 mM 2-mercaptoethanol, 2 mM Na-pyruvate, 0.1 mM hypoxanthine, 0.05 mM bathocuproine disulphonic acid, 0.15 mM L-cysteine and 15% heat inactivated pooled human serum.
Assays are performed in 96-well microtiter plates, each well containing 100 μl of culture medium with 8×10^3 bloodstream forms with or without a serial drug dilution. The highest concentration for the test compounds is 90 μg/ml. Seven 3-fold dilutions are used covering a range from 90 μg/ml to 0.123 μg/ml. […]

[2] = test system: Trypanosoma brucei rhodesiense STIB 900; experiment: Trypanosoma brucei whole cell assay, primary screen; conditions: read-out: ICo
Description: The bloodstream form trypomastigotes of the strains a and c are maintained in MEM medium with Earle's salts supplemented with 25 mM HEPES, 1 g/l additional glucose, 1% MEM nonessential amino acids (100×), 0.2 mM 2-mercaptoethanol, 2 mM Na-pyruvate, 0.1 mM hypoxanthine and 15% heat inactivated horse serum.
All cultures and assays are conducted at 37° C. under an atmosphere of 5% CO2 in air.
After use the stocks are kept at −20° C. For the assays, the compound is further diluted to the appropriate concentration using complete medium.
Assays are performed in 96-well microtiter plates, each well containing 100 μl of culture medium with 8×10^3 bloodstream forms with or without a serial drug dilution. The highest concentration for the test compounds is 90 μg/ml. Seven 3-fold dilutions are used covering a range from 90 μg/ml to 0.123 μg/ml. Each drug is tested in duplicate and each assay is repeated at least once. […]
10 μl of Alamar Blue (12.5 mg resazurin dissolved in 100 ml distilled water) are now added to each well and the plates incubated for another 2 hours. Then the plates are read with a Spectramax Gemini XS microplate fluorometer (Molecular Devices Cooperation, Sunnyvale, Calif., USA) using an excitation wave length of 536 nm and an emission wave length of 588 nm. Data are analysed using the microplate reader software Softmax Pro (Molecular Devices Cooperation, Sunnyvale, Calif., USA). […]

[3] = test system: Leishmania donovani strain MHOM/ET/67/L82; experiment: Leishmania donovani axenic amastigote assay; conditions: axenic amastigotes
[4] = test system: Leishmania donovani strain MHOM/ET/67/L82; experiment: Leishmaniasis macrophage in vitro screening model; conditions: amastigotes in murine macrophages, n=4
Description: The Leishmania donovani strain MHOM/ET/67/L82 obtained from Dr. S. Croft, London) is used. The strain is maintained in the Syrian Golden hamster. Amastigotes are collected from the spleen of an infected hamster Amastigotes are grown in axenic culture at 37° C. in SM medium (Cunningham I., J. […] Primary peritoneal macrophages from NMRI mice are collected 1 day after a macrophage production stimulation with an i.p injection of 2 ml of a 2% potato starch suspension (FLUKA, Switzerland) All cultures and assays are done at 37° C. under an atmosphere of 5% CO2 in air. […] After use the stocks are kept at -20° C. For the assays, the compound is further diluted in serum-free culture medium and finally to the appropriate concentration in complete medium. Assays are performed in sterile 16-well chamber slides (LabTek, Nalgene/Nunc Int.) To each well 100 μl of a murine macrophage suspension (4×10^5/ml) in RPMI 1640 (containing bicarbonate and HEPES) supplemented with 10% heat inactivated fetal bovine serum is added. […] Infected and non-infected macrophages are counted for the control cultures and the ones exposed to the serial drug dilutions. The infection rates are determined. The results are expressed as % reduction in parasite burden compared to control wells, and the IC50 calculated by linear regression analysis. […]

Structure (SMILES)	IC50 (T. b. brucei STIB 950) [ng/mL]	IC50 [1] [ng/mL]	IC50 [2] [ng/mL]	IC50 [3] [ng/mL]	IC50 [4] [ng/mL]
Nc1nc(N)nc(Nc2ccc([As]3SCC(CO)S3)cc2)n1 (centres unmarked) [melarsoprol]	2.8	4.2	1.6		
CCCCCCCCCCCCCCCCOP(=O)([O-])OCC[N+](C)(C)C [Miltefosine]				120 (≈ 0.294 µM)	325 (≈ 0.797 µM)
